This passage reports IC50, EC50 and Activity results from ChEMBL document CHEMBL5375960, “Design and Synthesis of Novel Cereblon Binders for Use in Targeted Protein Degradation” (J Med Chem, 2023).

In test [1] the target is Protein cereblon/DNA damage-binding protein 1 (Homo sapiens, UniProt Q96SW2). Kind of test: Displacement of Cy5-labeled tracer CC0782985 from 6His-tagged CRBN (1 to 442 residues)/DDB1 (1 to 1140 residues) (unknown origin) incubated for 20 mins by TR-FRET assay. Format: protein assay. Background: In TR-FRET formats the signal depends on donor and acceptor labels being close together.

The target in test [2] is Zinc finger protein Aiolos (Homo sapiens, UniProt Q9UKT9). In words: Induction of ePL tagged Aiolos degradation in human DF15 cells incubated for 4 hrs by luminescence based assay. The class given is cell-based.
Test [3] concerns the target T1, Eukaryotic peptide chain release factor GTP-binding subunit ERF3A (Homo sapiens, UniProt P15170). Kind of test: Induction of ePL tagged GSPT1 degradation in human DF15 cells incubated for 20 hrs by luminescence based assay. Format: cell-based.
Test [4] has as its target T1, Eukaryotic peptide chain release factor GTP-binding subunit ERF3A. In words: Induction of ePL tagged GSPT1 degradation in human DF15 cells assessed as remaining activity incubated for 20 hrs by luminescence based assay relative to control. Format: cell-based. Details: concentration or dose not given beside the values.
For test [5] the target is unchanged. Kind of test: Induction of ePL tagged GSPT1 degradation in human DF15 cells incubated for 20 hrs by luminescence based assay relative to control. The class given is cell-based.
The target of test [6] is T2, Androgen receptor (Homo sapiens) (UniProt P10275).
T2 sequence (whole entry): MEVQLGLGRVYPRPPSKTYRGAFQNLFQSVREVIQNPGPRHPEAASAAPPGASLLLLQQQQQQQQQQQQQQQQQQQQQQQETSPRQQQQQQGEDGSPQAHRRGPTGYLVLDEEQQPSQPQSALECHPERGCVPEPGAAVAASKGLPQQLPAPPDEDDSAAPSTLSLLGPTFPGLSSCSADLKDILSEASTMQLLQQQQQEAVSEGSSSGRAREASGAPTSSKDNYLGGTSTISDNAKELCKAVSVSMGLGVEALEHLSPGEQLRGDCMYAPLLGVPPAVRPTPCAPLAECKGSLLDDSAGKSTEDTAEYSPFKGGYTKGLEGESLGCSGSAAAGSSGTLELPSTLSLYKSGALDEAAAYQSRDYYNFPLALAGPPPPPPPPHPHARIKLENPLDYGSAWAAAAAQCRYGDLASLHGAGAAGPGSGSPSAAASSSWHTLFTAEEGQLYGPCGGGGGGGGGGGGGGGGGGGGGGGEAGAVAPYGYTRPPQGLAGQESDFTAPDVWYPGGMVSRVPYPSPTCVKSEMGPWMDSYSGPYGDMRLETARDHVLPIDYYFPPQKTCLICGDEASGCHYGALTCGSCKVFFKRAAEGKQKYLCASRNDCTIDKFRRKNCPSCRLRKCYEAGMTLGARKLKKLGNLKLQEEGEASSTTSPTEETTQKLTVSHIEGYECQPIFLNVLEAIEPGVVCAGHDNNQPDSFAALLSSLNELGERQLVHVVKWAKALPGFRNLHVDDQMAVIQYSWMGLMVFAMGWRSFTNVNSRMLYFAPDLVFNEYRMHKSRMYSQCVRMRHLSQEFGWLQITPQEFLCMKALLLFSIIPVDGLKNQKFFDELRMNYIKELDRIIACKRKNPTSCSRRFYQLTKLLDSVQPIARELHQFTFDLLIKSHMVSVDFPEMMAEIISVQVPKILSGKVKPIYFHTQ
Kind of test: Induction of androgen receptor degradation in human VCaP cells incubated for 24 hrs by ELISA. Format: cell-based. Background: ELISA stands for enzyme-linked immunosorbent assay.

SMILES strings stand for the structures. Active and inactive are the calls of the source. The calls are words filed in the database; no cut-off is given here. Some results are limits rather than exact numbers.

Broadly, the IC50 is the midpoint of a concentration-inhibition curve. By EC50 is commonly meant the concentration that produces a half-maximal response.

Regarding `O=c1ccn(-c2ccccc2)c(=O)[nH]1`, the IC50 in test [1] is more than 100 µM. In test [2], the concentration giving a half-maximal response (EC50) was more than 10 µM.
In turn, `Cc1ccc(NC(=O)NCc2ccc(C3CCC(=O)NC3=O)cc2)cc1Cl` (stereo unspecified) displayed an IC50 in test [1] of 0.29 µM. For the same molecule, the EC50 in test [2] was more than 10 µM; in test [3] it was 0.07 µM. In addition, the Activity in test [4] worked out at 73.4%; in test [5] it was 26%.
For `COc1ccc(C2CCC(=O)NC2=O)cc1` (stereo unspecified), the IC50 in test [1] stood at 2.2 µM. The EC50 in test [2] is more than 10 µM.
The molecule `O=C1CCN(c2ccc(OCc3ccc(CN4CCOCC4)cc3)cc2)C(=O)N1` gave an IC50 in test [1] of 8 µM. In addition, the EC50 in test [2] and in test [3] was more than 10 µM each time. The Activity in test [4] came out at 97.1%.
`Nc1ccc(C2CCC(=O)NC2=O)cc1` (stereo unspecified): the IC50 in test [1] is 1.2 µM. In test [2], this molecule displayed an EC50 of more than 10 µM. Also, in test [6], the result was Active.
The molecule `O=C1CCC(Oc2ccccc2)C(=O)N1` (stereo unspecified) registered an IC50 in test [1] of 7 µM. In test [2], the EC50 was more than 10 µM.
`Nc1cccc2c1C(=O)N(C1CCC(=O)NC1=O)C2=O` (stereo unspecified) [POMALIDOMIDE] returned an EC50 in test [2] of 0.02 µM.
`O=C1CCN(c2cccc(OCc3ccc(CN4CCOCC4)cc3)c2)C(=O)N1` returned an IC50 in test [1] of 3.3 µM. The EC50 in test [2] and in test [3] was more than 10 µM throughout. Further, the Activity in test [4] is 94%.
For the molecule `O=C1CCC(n2cnc3ccc(OCc4ccc(CN5CCOCC5)cc4)cc32)C(=O)N1` (stereo unspecified), the half-inhibitory concentration (IC50) in test [1] was found to be 0.28 µM. Also, the EC50 in test [2] is 0.07 µM; in test [3] it was more than 10 µM. Besides, in test [4], the Activity came to 99%.
`Cc1ccc(NC(=O)NCc2ccccc2C(=O)NC2CCC(=O)NC2=O)cc1Cl` (stereo unspecified) showed a half-inhibitory concentration (IC50) in test [1] of 10.3 µM. Moreover, the EC50 in test [2] and in test [3] was more than 10 µM each time. In addition, in test [4], the Activity stood at 88.4%.
For `Cn1nc(N2CCC(=O)NC2=O)c2ccccc21`, the IC50 in test [1] came out at 6.7 µM. The molecule also displayed an EC50 in test [2] of more than 10 µM.
Turning to `Nc1cccc(N[C@@H]2CCC(=O)NC2=O)c1`, in test [1], the IC50 is 2.9 µM. In addition, the EC50 in test [2] was more than 10 µM.
Take `Cc1ccc(NC(=O)NCc2cccc(N3CCC(=O)NC3=O)c2)cc1Cl`: in test [1], the IC50 turned out to be 8.6 µM. Further, the EC50 in test [2] and in test [3] was more than 10 µM throughout. The Activity in test [4] amounted to 95.2%.
Consider `Nc1cccc2c1ncn2C1CCC(=O)NC1=O` (stereo unspecified), for which the IC50 in test [1] amounted to 0.81 µM. The half-maximal effective concentration (EC50) in test [2] was more than 10 µM.
On the same counts, the results for `Cn1nc(C2CCC(=O)NC2=O)c2cccc(N)c21` (stereo unspecified) are 0.19 µM and more than 10 µM.
With `Cn1nc(N2CCC(=O)NC2=O)c2cccc(N)c21`, the IC50 in test [1] was 12.2 µM. The molecule also showed an EC50 in test [2] of more than 10 µM.
`Cc1ccc(NC(=O)NCc2cccc(C(=O)NC3CCC(=O)NC3=O)c2)cc1Cl` (stereo unspecified) showed a concentration for half-maximal inhibition (IC50) in test [1] of 3.8 µM. Also, the figures for the EC50 in test [2] and in test [3] were more than 10 µM and 0.021 µM, respectively. Besides, the Activity in test [4] came to 3.1%.
With `Cn1nc(C2CCC(=O)NC2=O)c2ccccc21` (stereo unspecified), the 50% inhibitory concentration (IC50) in test [1] came to 0.15 µM. The EC50 in test [2] was more than 10 µM.
For `Nc1cccc(C(=O)NC2CCC(=O)NC2=O)c1` (stereo unspecified) the same measures were 25.8 µM and more than 10 µM.
For `O=C1CCC(Nc2ccccc2)C(=O)N1` (stereo unspecified) the same measures were 5.6 µM and more than 10 µM.
Molecule `Cc1ccc(NC(=O)NCc2cccc(C3CCC(=O)NC3=O)c2)cc1Cl` (stereo unspecified) had an IC50 in test [1] of 1.5 µM. Also, the EC50 in test [2] and in test [3] was more than 10 µM each time. Further, the Activity in test [4] stood at 92.8%.
The molecule `Nc1cccc(C2CCC(=O)NC2=O)c1` (stereo unspecified) registered an IC50 in test [1] of 2.3 µM. Besides, the EC50 in test [2] is more than 10 µM. The outcome in test [6] was Active.
Take `Nc1ccc(NC2CCC(=O)NC2=O)cc1` (stereo unspecified): the IC50 in test [1] came out at 12.4 µM. In test [2], this molecule returned an EC50 of more than 10 µM.
The molecule `Nc1cccc(NC2CCC(=O)NC2=O)c1` (stereo unspecified) showed an IC50 in test [1] of 3.7 µM. Further, the EC50 in test [2] was more than 10 µM.
For `Nc1cccc(N[C@H]2CCC(=O)NC2=O)c1` the same measures were 1.4 µM and more than 10 µM.
Molecule `Nc1ccc(N2CCC(=O)NC2=O)cc1` showed an IC50 in test [1] of 23.6 µM. This molecule displayed an EC50 in test [2] of more than 10 µM. Moreover, the result in test [6] was inactive.
Molecule `COc1cccc(C2CCC(=O)NC2=O)c1` (stereo unspecified) had an IC50 in test [1] of 1.7 µM. In test [2], this molecule displayed an EC50 of more than 10 µM.
For `Cc1ccc(NC(=O)NCc2ccc(N3CCC(=O)NC3=O)cc2)cc1Cl`, the IC50 in test [1] came to 4.7 µM. Besides, the EC50 in test [2] and in test [3] was more than 10 µM throughout. Also, in test [4], the Activity was 93.8%.
For `Cc1ccc(NC(=O)NCc2ccc(C(=O)NC3CCC(=O)NC3=O)cc2)cc1Cl` (stereo unspecified), in test [1], the IC50 amounted to 3.4 µM. In addition, the EC50 is more than 10 µM in test [2] and 0.1 µM in test [3]. Besides, the Activity in test [4] is 33.7%.
Molecule `Cn1nc(N2CCC(=O)NC2=O)c2ccc(N)cc21` gave an IC50 in test [1] of 2.3 µM. The 50% effective concentration (EC50) in test [2] is more than 10 µM.
On the same counts, the results for `Nc1cccc2c1cnn2C1CCC(=O)NC1=O` (stereo unspecified) are 0.34 µM and more than 10 µM.
As to `Cc1ccc(NC(=O)NCc2ccc3c(c2)CN(C2CCC(=O)NC2=O)C3=O)cc1Cl` (stereo unspecified), the IC50 in test [1] came out at 0.03 µM. Also, the EC50 in test [2] is 0.005 µM; in test [3], 0.0003 µM. Further, the Activity in test [4] worked out at 3.9%.
Turning to `O=C1CCC(n2ncc3ccccc32)C(=O)N1` (stereo unspecified), the EC50 in test [2] is more than 10 µM.
With `Nc1ccc2ncn(C3CCC(=O)NC3=O)c2c1` (stereo unspecified), the IC50 in test [1] was determined as 0.74 µM. In addition, a half-maximal response in test [2] (EC50) required 0.142 µM.
Consider `Cn1nc(C2CCC(=O)NC2=O)c2ccc(N)cc21` (stereo unspecified), for which, in test [1], the IC50 worked out at 0.1 µM. This molecule registered a concentration giving a half-maximal response (EC50) in test [2] of more than 10 µM.
For `O=C1CCC(NC(=O)c2ccccc2)C(=O)N1` (stereo unspecified) the same measures were 11.1 µM and more than 10 µM.
In the case of `Nc1ccc2c(c1)ncn2C1CCC(=O)NC1=O` (stereo unspecified), the IC50 in test [1] amounted to 0.59 µM. For the same molecule, in test [2], a half-maximal effect (EC50) was put at 0.312 µM.
`O=C1CCC(c2ccc(OCc3ccc(CN4CCOCC4)cc3)cc2)C(=O)N1` (stereo unspecified) showed an IC50 in test [1] of 1.9 µM. For the same molecule, the EC50 in test [2] and in test [3] was more than 10 µM throughout. Also, in test [4], the Activity came to 97.1%.
`O=C1CCC(c2cccc(OCc3ccc(CN4CCOCC4)cc3)c2)C(=O)N1` (stereo unspecified) had a half-maximal inhibitory concentration (IC50) in test [1] of 0.58 µM. Also, the EC50 in test [2] and in test [3] was more than 10 µM throughout. The Activity in test [4] was determined as 96.6%.
In test [1], `Nc1cccc(N2CCC(=O)NC2=O)c1` came in with an IC50 of 11.7 µM. Also, the EC50 in test [2] was more than 10 µM. Further, the result in test [6] was inactive.
`O=C1CCC(c2ccccc2)C(=O)N1` (stereo unspecified) came in with an EC50 in test [2] of more than 10 µM.
As for `Nc1ccc(C(=O)NC2CCC(=O)NC2=O)cc1` (stereo unspecified), the IC50 in test [1] turned out to be 5.5 µM. Besides, it took 0.607 µM to reach a half-maximal effect in test [2] (EC50).
For the molecule `O=C1CC[C@H](N2Cc3c(OCc4ccc(CN5CCOCC5)cc4)cccc3C2=O)C(=O)N1` [IBERDOMIDE], the EC50 in test [2] was 0.001 µM; in test [3], more than 10 µM. In addition, the Activity in test [4] is 88.8%.
`O=C1CCN(c2ccccc2)C(=O)N1`: the EC50 in test [2] was more than 10 µM.
